Assays:
[1] = test system: Pseudomonas aeruginosa biofilms; experiment: Log reduction and MBEC assays on biofilms; assay type: cell-based; settings: 4 hours
[2] = Stability of partially dehydrated sodium diperiodatoargentate in the presence of saline; assay type: physicochemical; settings: compared with the fully hydrated compound
Experimental: Fully hydrated sodium diperiodatoargentate was made, ground using a mortar and pestle, and spread in an even thin layer in a pre-heated (120° C.) non-reactive container (e.g. glass or ceramics). The thin layer was necessary to prevent areas of poor heat transfer. The container was then placed in an oven at 120° C. for 15 minutes. After 15 minutes, the sample was removed from the oven and transferred to a sealed container (glass vial), which was then stored in a dessicator in the dark at room temperature to prevent the material from adsorbing water.
Relative to the fully hydrated sodium diperiodatoargentate, the partially dehydrated sodium diperiodatoargentate is darker in color and is a much finer powder (which will be advantageous for incorporation into polymers).

[3] = test system: Escherichia coli (ATCC 25922); experiment: MBEC P&G assay in dilutions of mucin; assay type: cell-based
Experimental: The effects of silver (III) periodate and silver nitrate in different dilutions of mucin (2.0%, 1.0%, 0.5%, 0.25%, 0.12%, 0.06%) were tested using the MBEC™ P&G assay against Escherichia coli (ATCC 25922)The challenge time was 4 hours. The tested concentration range for both silver compounds was 500 to 7.8 ppm.

[4] = test system: Candida albicans ATCC 28367; experiment: MBEC P&G assay in dilutions of human serum; assay type: cell-based; settings: all concentrations of human serum
Experimental: (§1) The effects of silver (III) periodate and silver nitrate were tested in different dilutions of human serum (0.001%, 0.01%, 0.1%, 1%, 10%, 50%) using the MBECTM P&G assay against relevant clinical human pathogens Escherichia coli, Staphylococcus aureus (MRSA), and Candida albicans. The challenge time was 4 hours. The tested concentration range for the silver compounds was 500 to 7.8 ppm.

[5] = test system: Staphylococcus aureus (MRSA) 456; experiment: MBEC P&G assay in dilutions of human serum; assay type: cell-based
Experimental: as §1

[6] = test system: Escherichia coli ATCC 25922; experiment: MBEC P&G assay in dilutions of human serum; assay type: cell-based
Experimental: as §1

[7] = test system: Escherichia coli (ATCC 25922); experiment: MBEC P&G assay in dilutions of urine; assay type: cell-based
Experimental: The effects of silver (III) periodate and silver nitrate in different dilutions of urine (0.001%, 0.01%, 0.1%, 1%, 10%, 50%) using the MBEC™ P&G assay were tested against Escherichia coli (ATCC 25922)The challenge time was 4 hours. The tested concentration range for both silver compounds was 500 to 7.8 ppm.

P. aeruginosa ATCC 27853 = experiment: Silver (III) periodate efficacy testing in the presence of Cl-, SO4 2-, and PO4 3-; assay type: cell-based; settings: 30 minutes, 1.5-200 ppm
Experimental: Silver (III) periodate was tested for efficacy in water, 1% NaCl, 1% K2SO4, and 1% K2HPO4 solutions, and compared with silver nitrate. The test solutions were tested against P. aeruginosa ATCC 27853. The challenge time was 30 minutes. Silver (III) periodate and silver nitrate were tested at range of 1.5-200 ppm.

[8] = test system: Escherichia coli (ATCC 25922); experiment: MBEC P&G assay in dilutions of feces; assay type: cell-based
Experimental: The challenge time was 4 hours. The tested concentration range for both silver compounds was 500 to 7.8 ppm.

[9] = test system: bacterial speck (Pseudomonas syringae pv. tomato); experiment: Field trial, foliar spray against bacterial speck in tomatoes (Example 18); assay type: in vivo, tomatoes (Lycopersicon esculentum); settings: after three treatment sprays
[10] = test system: bacterial canker (Clavibacter michiganensis pv. michiganensis); experiment: Field trial, foliar spray against bacterial canker in tomatoes (Example 19); assay type: in vivo, tomatoes (Lycopersicon esculentum); settings: after three treatment sprays; full dose
Experimental: (§2) Silver (III) periodate was tested as a bactericidal foliar spray treatment against bacterial canker (Clavibacter michiganensis pv. michiganensis) in tomatoes (Lycopersicon esculentum).
(§3) See Example 18 for Preparation of Tomato Seed; Preparation of Field; Seeding; Plot Maintenance; Preparation of Spray Treatment Solutions and Inoculum; Spray Treatment Procedure; and Data Collection.

[11] = test system: bacterial canker (Clavibacter michiganensis pv. michiganensis); experiment: Field trial, foliar spray against bacterial canker in tomatoes (Example 20); assay type: in vivo, tomatoes (Lycopersicon esculentum)
Experimental: as §2, §3

## sodium diperiodatoargentate
[1]; 200 ppm, p<0.05
  kill of biofilms: significantly higher kill than the fully hydrated sodium diperiodatoargentate
[1]; all other concentrations (1.56 ppm to 200 ppm range)
  kill of biofilms: no significant differences
[2]
  stability in the presence of saline: same level of stability as the fully hydrated compound

## O=[N+]([O-])[O-].[Ag+] [silver nitrate, reference compound]
[3]; mucin 0.5% and lower, higher compound concentrations
  log reduction compared with the other compound: better log reductions
[3]; regardless of the concentration of mucin
  log reduction, trend with compound concentration: the lower the concentration of silver nitrate, the lower the log reduction was
[4]
  log reduction, trend with compound concentration: Log reductions decreased with a decrease in concentration of silver nitrate
[5]; 0.001% human serum, 500 ppm
  log reduction compared with the other compound: higher log reduction only at 500 ppm with a two magnitude difference
[5]; 0.1% and 0.01% human serum
  killing activity: no significant killing activity
[6]; human serum 1% or 0.001%
  log reduction, trend with compound concentration: no effect on the log reduction
[6]; human serum 50%, 10%, and 0.1%
  log reduction, trend with compound concentration: log reductions decreased significantly with a decrease in the concentration of silver nitrate
[7]; 50.0% urine
  MBC cut-off point: 31.25 ppm
[7]; 100% urine
  MBC cut-off point: 62.5 ppm
[7]; 500 and 250 ppm, all tested concentrations of urine
  log reduction: approximately equal log reductions
[7]; compound concentrations of 125 ppm and below
  log reduction compared with the other compound: larger log reduction in the higher concentrations of urine
P. aeruginosa ATCC 27853; in the presence of 1% NaCl or 1% K2HPO4
  killing: unable to kill at any of the tested concentrations
P. aeruginosa ATCC 27853; no salt and 1% K2SO4
  killing: effective at killing all the cells for the entire challenge range
[8]; 1.56% feces
  MBC, effective level: < 7.8 ppm
[8]; 3.13% feces
  MBC, effective level: < 7.8 ppm
[8]; 6.25% feces
  MBC, effective level: < 7.8 ppm
[8]; 12.5% feces
  MBC, effective level: 15.6 ppm
[8]; 25% feces
  MBC, effective level: 31.25 ppm
[8]; 50% feces
  MBC, effective level: 62.5 ppm
[8]; in the presence of feces
  MBEC effectiveness compared with silver(III) periodate: more effective than silver(III) periodate in higher concentrations of feces but less effective in lower concentrations

## oxysilver nitrate [reference compound]
[9]
  disease severity on foliage: best at reducing disease severity on foliage
[10]
  disease severity on foliage: best at reducing disease severity on foliage
[11]; after three treatment sprays, low and high dose
  disease severity on foliage: best at reducing disease severity on foliage
[11]; after two treatment sprays, high dose
  disease severity on foliage: best at reducing disease severity on foliage

Reference: patent US20120328713A1, “Articles of Manufacture with Improved Anti-microbial Properties” (priority 2009, published 2012)
